In data set [1] the target is CB1 receptor (Homo sapiens (Human), UniProt P21554). The data set is described as follows: CB1 receptor radioligand binding assay, membranes from human source. The method, then:
(§1) Radioligand binding assays: Binding affinity was determined by a radioligand binding assay. The different BB8-conjugates binding to CB1 and CB2 receptors was assessed in competition displacement assays using [^3H]CP-55.940 as the radioligand and crude membranes from mouse brain for CB1 receptor and human kidney cells for CB2 receptor.
(§2) CB1 receptor binding assay: Mouse brain membranes were used as the source material for CB1 receptors. The displacement of specifically bound tritiated CP-55.940 from these membranes using a standard filtration assay was used to determine the Ki values for the test compounds. Briefly. 20 μg of protein was incubated for 1 h at 30° C. in the presence of 0.5 nM [^3H]CP-55,940 and various concentrations (10^−5M-10^−11M) of test compound/control, final volume of 1 mL. The incubation was terminated by rapid filtration and washing, and the amount of specifically bound [^3H]CP-55,940 was determined. Briefly, membranes with bound [^3H]CP-55,940 were separated and washed from free ligand by vacuum filtration, adsorbing the membrane onto a Whatman glass microfiber filter paper ([…], Cat #1821271). Finally, the Whatman filter paper with adsorbed membranes was cut and placed in scintillation liquid (Ultima Gold) for 1 h at 25° C. followed by a β counter reading of bound [^3H]CP-55,940 radioligand. All data were in triplicates with Ki values determined using GraphPad Prism 7.02 analysis software. […] In some cases, membranes from human source were used to determine CB1 receptor binding affinity.

The next data set has as its system P-gp (MDR1). The data set is described as follows: MDR1-MDCK II cell permeation assay (bi-directional permeability, P-gp efflux). The class given is in vitro ADME. The note with it: dog, MDCK-MDR1, pH 7.4; 2 μM, A to B, 2.5 hours. The gist of the method: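 Compounds at 2 μM (DMSO <1%) in HBSS with 10 mM Hepes, pH 7.4, were applied apically or basolaterally to MDR1-MDCKII monolayers. A-to-B and B-to-A transport was run in duplicate with or without 10 μM GF120918 for 2.5 h at 37° C, 5% CO2. Compounds were quantified by LC-MS/MS, and efflux ratios were determined.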

Data set [2] has as its target CB1 receptor (Mus musculus (Mouse), UniProt P47746). The data set is described as follows: CB1 receptor radioligand binding assay, [3H]CP-55,940 displacement, mouse brain membranes. The method, then: as §1, §2
Data set [3] in a line: Pharmacokinetics after oral and IV dosing. The class given is in vivo, C57BL/6J mice. The note with it: for Cmax: male, C57BL/6J, po. The procedure: Pharmacokinetics: Male C57BL/6J mice (7-9 weeks, N=3 in each group) were used in this study. Mice were fasted at least 12 hr prior to administration of test article and have access to food ad libitum 4 hr post dosing. Appropriate amount of test article was accurately weighted and mixed with the appropriate volume of vehicle to get a clear oral solution. The formulations were prepared on the day of dosing, and mice were dosed via either orally gavage or intravenous injection, up to 4 hr after formulations were prepared. About 30 μL blood per time point was collected from the saphenous vein followed by plasma preparation. Dose formulation and sample analysis was performed by LC-MS/MS method. Plasma concentration versus time data was analyzed by non-compartmental method.

Data set [4] deals with mice. The data set is described as follows: Catalepsy test (bar test), WIN55,212-induced. The class given is in vivo. The following applies: single dose 20 mg/kg PO 30 min prior to WIN55,212 3 mg/kg IP. The method, then: Catalepsy test: Catalepsy was assayed using the bar test. Briefly, mice were removed from their home cage, and their forepaws were placed on a horizontal bar, 0.5 cm in diameter, positioned 4 cm above the bench surface. Vehicle-treated mice routinely let go of the bar within 2 sec. Cataleptic behavior was defined as the time the animals remained motionless holding on to the bar, with an arbitrary cutoff of 30 sec. The antagonists were given 30 min before the IP injection of 3 mg/kg WIN55,212. The test was performed 60 min after agonist administration.

For data set [5], the system named is mice. As to the kind of experiment: Elevated plus-maze, anxiety-related behavior. The class given is in vivo. The following applies: single dose 20 mg/kg PO. The procedure:
Elevated plus-maze: Anxiety-related behaviors were assessed using the EPM test as reported previously. Animals were placed on the 5×5 cm central platform of an apparatus from which four arms, 30 cm×5 cm extended. Two of the arms (the closed arms) are enclosed within 15 cm high walls, and the two other arms (the open arms) have 1 cm high rims. The whole maze is elevated 75 cm above the ground. During the 6 min test time, the number of entries to each arm type (closed or open arms, frequencies) and the time spent in each type of arm (closed or open arms, duration) during the test were measured.

Where [6] appears, read: mouse, plasma, oral administration of 10 and 20 mg/kg, C57BL/6J male mice.

We go through two molecules from patent publication US20240189287A1, “PERIPHERALLY RESTRICTED CB1 RECEPTOR BLOCKERS AND USES THEREOF” (BIONANOSIM (BNS) LTD, priority 2021, published 2024).

“Also recorded” adds a separate entry of the source.

Chain of CB1 receptor (Mus musculus (Mouse), UniProt P47746) (P47746 whole entry): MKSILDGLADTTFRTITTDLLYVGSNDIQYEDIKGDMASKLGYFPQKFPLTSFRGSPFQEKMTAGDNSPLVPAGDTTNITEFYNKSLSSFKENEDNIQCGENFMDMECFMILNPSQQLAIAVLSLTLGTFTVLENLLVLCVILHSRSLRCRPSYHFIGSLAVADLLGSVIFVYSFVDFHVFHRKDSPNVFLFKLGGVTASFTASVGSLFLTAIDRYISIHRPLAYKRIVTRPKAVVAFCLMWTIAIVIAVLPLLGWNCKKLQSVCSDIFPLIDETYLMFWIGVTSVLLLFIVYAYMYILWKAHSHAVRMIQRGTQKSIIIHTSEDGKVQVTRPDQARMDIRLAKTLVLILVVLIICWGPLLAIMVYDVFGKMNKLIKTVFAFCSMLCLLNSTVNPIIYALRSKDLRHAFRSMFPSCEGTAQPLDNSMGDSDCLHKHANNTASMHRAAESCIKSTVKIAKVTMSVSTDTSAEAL
Chain of CB1 receptor (Homo sapiens (Human), UniProt P21554) (P21554 whole entry): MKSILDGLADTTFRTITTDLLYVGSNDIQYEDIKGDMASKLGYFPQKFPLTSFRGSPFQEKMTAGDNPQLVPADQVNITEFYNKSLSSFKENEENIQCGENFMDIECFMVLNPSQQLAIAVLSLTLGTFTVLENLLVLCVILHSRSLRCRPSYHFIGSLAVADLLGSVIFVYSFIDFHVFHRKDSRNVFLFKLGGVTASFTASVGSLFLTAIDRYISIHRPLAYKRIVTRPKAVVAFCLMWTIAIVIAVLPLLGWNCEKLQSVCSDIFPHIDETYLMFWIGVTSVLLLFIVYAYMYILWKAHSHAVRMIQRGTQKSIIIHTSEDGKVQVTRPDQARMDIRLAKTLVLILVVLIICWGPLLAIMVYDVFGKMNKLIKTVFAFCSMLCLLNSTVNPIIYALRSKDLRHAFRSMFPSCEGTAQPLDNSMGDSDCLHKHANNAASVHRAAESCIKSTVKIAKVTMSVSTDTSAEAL

With `O=S(=O)(NC1CCCOc2c1nn(-c1ccccc1Cl)c2-c1ccc(Cl)cc1)c1ccc(Cl)cc1` (stereo not shown) [BNS808, 4-chloro-N-[2-(2-chlorophenyl)-3-(4-chlorophenyl)-5,6,7,8-tetrahydrooxepino[3,2-c]pyrazol-8-yl]benzenesulfonamide], the Ki (commonly a measure of affinity in units of concentration, obtained from inhibition or displacement) at CB1 receptor [1] came to 0.7 nM. The Papp (in general, a coefficient for how fast a substance crosses the barrier) at 2.5 h, 2 μM in the data set on P-gp (MDR1) was 0.26 ×10⁻⁶ cm/s.
As for `Cc1ccc(C)c(OCCCC(C)(C)C(=O)NC2CCCOc3c2nn(-c2ccccc2Cl)c3-c2ccc(Cl)cc2)c1` (stereo not shown) [BNS822, N-[2-(2-chlorophenyl)-3-(4-chlorophenyl)-5,6,7,8-tetrahydrooxepino[3,2-c]pyrazol-8-yl]-5-(2,5-dimethylphenoxy)-2,2-dimethyl-pentanamide], the “affinity / potency against the CB1 receptor (in words)” value at CB1 receptor [2] (CB1 receptor (mouse/human)) is “high potency”. In addition, on CB1 receptor [2] (mouse (m) CB1 receptor, read-out: CB1R Ki (nM) (m)), the Ki is 1.4 nM. Further, in data set [3] (absolute, oral 10 and 20 mg/kg vs IV 1 mg/kg, C57BL/6J male mice), the “Oral bioavail (%)” value is reported as 8.62-10.59%. Further, the Cmax (in general, the maximum level reached in the sampled fluid or tissue) in data set [3] (mouse, plasma, 10 mg/kg, oral 10 mg/kg, mice) is 283 ng/mL; in data set [3] (mouse, plasma, 20 mg/kg, oral 20 mg/kg, mice) it was 811 ng/mL; in data set [3] (mouse, plasma, 20 mg/kg, oral administration of 10 and 20 mg/kg (range over both doses), C57BL/6J male mice) it was 283 to 811 ng/mL. Also, the Tmax – broadly, the time at which the peak concentration occurs – in data set [3] (setting [6]) turned out to be 2 h. The half-life (commonly the time needed for the level to fall by half in the phase considered) in data set [3] (setting [6]) is 5.2 h. Besides, the “T1/2” value in data set [3] (oral administration of 10 and 20 mg/kg, C57BL/6J male mice) stood at 5.2 h. Also, the “WIN55,212-induced catalepsy” value in the data set on mice [4] was “did not block; also recorded: no effect”. In addition, in the data set on mice [5], the “anxiogenic behavior in the Elevated Plus Maze” value is “nor did it induce a robust anxiogenic response; also recorded: no anxiogenic effect”.
